Data taken from patent US9580400B2, “Cannabinergic nitrate esters and related analogs” (Northeastern University, priority 2013, dated 2017).

Key:
[1] = biological target: T1, human GPR55 receptor (Homo sapiens, UniProt Q9Y2T6); experiment: β-arrestin2 translocation assay, GPR55, U2OS cells; format: cell-based
T1 construct: human GPR55 receptor modified with human vasopressin V2 receptor tail [GPR55(E)]; fused on or other part: C-terminal tail of the human vasopressin V2 receptor (AVPR2), added to strengthen beta-arrestin recruitment; HA tag; Beta-arrestin 2-GFP is co-expressed as the read-out
Procedure: Test compounds were screened in U2OS cells permanently expressing β-arrestin 2-GFP and human GPR55 receptor modified with human vasopressin V2 receptor tail [GPR55(E)].
β-arrestin2 translocation: For both agonist and antagonist assays, the U2OS cells permanently transfected with β-arrestin 2-GFP and human GPR55(E) were used to trace β-arrestin translocation upon compound treatment. U2OS cells permanently expressing HA-GPR55E and βarr2-GFP were plated into 96 or 384 glass bottomed well plates in clear MEM. For the antagonist assay, compounds in DMSO (final concentration <1%) were added to cells 15 min prior to LPI (agonist) addition and the plates were placed in a 5% 37 degree CO2 incubator (LPI was used at 6 μM). For agonist evaluation only the compound of interest is placed on the wells. Following 40 minute incubation, the cells are fixed by adding paraformaldehyde to 4%. Image acquisition is performed using the Cellomics Arrayscan VTI High Content (HC) cell based imaging system and a ×40 lens. Image analysis is done by using the Batchmode computer software evaluating wavelet information which reflects the number and intensity of fluorescent aggregation (procedures performed at Duke University and adopted from http://www.ncbi.nlm.nih.gov/books/NBK66153/and J. Biol. Chem. 2009; 284(43):29817-27 herein incorporated by reference in its entirety). FIG. 15 describes the biochemical assay for compound 78 wherein the β-arrestin assessment of GPR55 activation is shown.

[2] = biological target: T2, rCB1 (Rattus norvegicus, UniProt P20272); experiment: rCB1 competition-equilibrium binding using [3H]CP-55,940, rat brain membranes; details: Ki calculated from IC50, read-out: rCB1 affinity data
T2 construct: tissue Pel-Freeze Biologicals; host or cells: rat brain membranes
Procedure: Frozen rat brains (CB1 source) are obtained from Pel-Freeze Biologicals (Rogers, A K) and stored at −80° C. until use. Membranes are prepared according to the method described in Brain Res 1981, 226, (1-2), 107-18 and adapted as previously reported in J Med Chem 1994, 37, (23), 3867-70 and Life Sci 1995, 56, (23-24), 1957-62; each herein incorporated by reference in its entirety.
(§1) The compounds are tested for their ability to bind to CB1 and CB2 receptors using rat brain or HEK293 cell membranes expressing hCB2 and mCB2 membrane preparations, respectively, as described in J Med Chem 1999, 42, (4), 769-776, J Med Chem 1994, 37, (23), 3867-70 and Life Sci 1995, 56, (23-24), 1957-62 (each herein incorporated by reference in its entirety) via competition-equilibrium binding using [^3H]CP-55,940. The results are analyzed using nonlinear regression to determine the actual IC50 of the ligand (Prizm by GraphPad Software, Inc.) and the Ki values are calculated from the IC50 as described in Biochemical Pharmacology 1973, 22, (23), 3099-3108; herein incorporated by reference in its entirety.

[3] = biological target: T3, hCB2 (Homo sapiens, UniProt P34972); experiment: hCB2 competition-equilibrium binding using [3H]CP-55,940, HEK293 cell membranes; details: HEK293 cell membranes expressing hCB2; Ki calculated from IC50; read-out: hCB2 affinity data
T3 construct: expressed in transfected cells; host or cells: HEK293
Procedure: HEK293 cells expressing hCB1, hCB2 or mCB2 receptor are used for membrane preparations according to the method described in J Neurochem 1999, 72, (5), 2032-8, herein incorporated by reference in its entirety. The resulting pellet is resuspended in 10 mM Tris-chloride, pH 7.4 with 5 mM MgCl2 and 2 mM EDTA (TME), and stored at −80° C. for no longer than two months. Protein content is assayed by using the Bio-Rad DC protein assay according to the manufacturer's protocol.
as §1

[4] = antagonist assay, compound added 15 min prior to LPI (6 μM), U2OS cells with β-arrestin 2-GFP and GPR55(E)

T1 sequence (Q9Y2T6 1-292 limits assumed): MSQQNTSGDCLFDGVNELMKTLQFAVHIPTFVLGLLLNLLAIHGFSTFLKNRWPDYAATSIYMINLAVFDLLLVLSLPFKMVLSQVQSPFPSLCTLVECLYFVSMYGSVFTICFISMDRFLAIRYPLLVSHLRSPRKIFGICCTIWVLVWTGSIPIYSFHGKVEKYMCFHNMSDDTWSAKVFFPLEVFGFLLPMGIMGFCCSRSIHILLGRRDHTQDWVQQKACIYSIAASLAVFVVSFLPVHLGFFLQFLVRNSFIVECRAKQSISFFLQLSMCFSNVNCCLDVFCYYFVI
T3 sequence (P34972 whole entry): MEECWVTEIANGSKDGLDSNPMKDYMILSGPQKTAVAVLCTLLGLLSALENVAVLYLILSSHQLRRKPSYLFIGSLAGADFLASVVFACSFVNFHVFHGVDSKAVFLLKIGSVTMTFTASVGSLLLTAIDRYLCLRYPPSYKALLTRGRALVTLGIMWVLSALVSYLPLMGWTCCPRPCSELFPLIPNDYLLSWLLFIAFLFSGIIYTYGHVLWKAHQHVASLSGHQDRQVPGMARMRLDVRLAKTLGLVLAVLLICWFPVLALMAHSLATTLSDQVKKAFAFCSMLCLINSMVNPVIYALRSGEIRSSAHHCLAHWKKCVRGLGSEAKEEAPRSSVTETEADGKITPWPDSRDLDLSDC
T2 sequence (P20272 whole entry): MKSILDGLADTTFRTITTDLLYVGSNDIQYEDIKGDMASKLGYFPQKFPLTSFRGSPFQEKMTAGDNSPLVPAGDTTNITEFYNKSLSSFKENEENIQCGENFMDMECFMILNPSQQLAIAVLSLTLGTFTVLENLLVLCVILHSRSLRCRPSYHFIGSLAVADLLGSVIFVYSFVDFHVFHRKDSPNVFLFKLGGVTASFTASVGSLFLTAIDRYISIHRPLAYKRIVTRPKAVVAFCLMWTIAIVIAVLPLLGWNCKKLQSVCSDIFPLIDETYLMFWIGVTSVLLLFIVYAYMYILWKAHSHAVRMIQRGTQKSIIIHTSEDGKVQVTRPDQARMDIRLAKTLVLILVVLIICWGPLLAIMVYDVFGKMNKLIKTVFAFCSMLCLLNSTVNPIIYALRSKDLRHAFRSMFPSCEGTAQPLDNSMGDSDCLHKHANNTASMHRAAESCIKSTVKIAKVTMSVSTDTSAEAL

| Compound | GPR55 EC50 [1, 4] | Ki [2] [nM] | Ki [3] [nM] | also measured |
| --- | --- | --- | --- | --- |
| L-α-lysophosphatidylinositol [LPI] |  |  |  | EC50 ([1]; LPI (agonist) line of the antagonist assay table): 6000 nM |
| C=C(C)[C@@H]1CCC(C)=C[C@H]1c1c(O)cc(O)cc1CCCCC [abn-cannabidiol, abnormal cannabidiol] | none |  |  |  |
| CC1=CC[C@@H]2[C@@H](C1)c1c(O)cc(C(C)(C)CCCCO[N+](=O)[O-])cc1OC2(C)C [compound 1, 5-((6aR,1aR)-1-hydroxy-6,6,9-trimethyl-6a,7,10,10a-tetrahydro-6H-benzo[c]chromen-3-yl)-5-methylhexyl nitrate] |  | 0.1 | 1 |  |
| CCCCCc1cc(O)c2c(c1)OC(C)(C)[C@@H]1CCC(C)=C[C@@H]21 [Δ^9-THC, Δ^9-tetrahydrocannabinol] | none |  |  |  |
| C=C(C)[C@@H]1CCC(C)=C[C@H]1c1c(O)cc(C(C)(C)CCCCO[N+](=O)[O-])cc1O [compound 78, 5-((1′R,2′R)-2,6-dihydroxy-5′-methyl-2′-(prop-1-en-2-yl)-1′,2′,3′,4′-tetrahydro-[1,1′-biphenyl]-4-yl)-5-methylhexyl nitrate] |  | 60 | 35 | EC50 [1, 4]: 2000 to 4000 nM |
| C=C(C)[C@@H]1CCC(C)=C[C@H]1c1c(O)cc(CCCCC)cc1O [cannabidiol] | none |  |  |  |
